The values that follow come from publication PMC7018803, “A randomized, placebo-controlled, phase 1 study to evaluate the effects of TAK-063 on ketamine-induced changes in fMRI BOLD signal in healthy subjects” (Psychopharmacology, 2019).

For assay [1], the system named is healthy male subjects. As to the kind of experiment: Ketamine-induced changes in fMRI BOLD signal during working memory task (AX-CPT). Type of assay: in vivo, human. The method, then: (§1) Subjects checked in on day − 1 of each treatment period during which vital signs, electrocardiogram (ECG), and laboratory safety tests were repeated. On day 1 of each treatment period, subjects received a 3-, 10-, or 30-mg TAK-063 dose or placebo tablets. Participants then relaxed, slept, or watched movies while remaining in the research environment. Ketamine (0.12 mg/kg intravenous bolus over 60 s followed by a continuous infusion of 0.31 mg/kg/h over approximately 150 min) was administered 4 h after TAK-063 or placebo (Fig. 1). This ketamine dose was based on a previous study that achieved steady-state concentrations of 75 ng/mL and provided a robust BOLD signal with minimal psychotomimetic symptoms (De Simoni et al. [2013]).
The scanning protocol for the current study was very comprehensive and included multiple MR approaches. This publication reports the BOLD fMRI data for the working memory task, but also resting state fMRI. The magnetic scanning portion of the neuroimaging test battery was initiated 20 min before ketamine dosing. Imaging was performed using a 3 Tesla Siemens Trio scanner. The MR scanning protocol was initiated 20 min before ketamine dosing; prior to scanning, a structural magnetization prepared rapid gradient echo (MPRAGE) scan was collected. As part of the scanning protocol, each subject received 20 min of scanning − 10 min arterial spin labeling (ASL) plus 10 min resting BOLD prior to ketamine infusion. After ketamine infusion, the resting state fMRI BOLD acquisition continued for an additional 10 min. Next, a Spatial Working Memory task-induced fMRI BOLD acquisition was performed for 15 min. Following these BOLD acquisitions, another 10 min ASL scan was acquired and a 10-min T1 relaxometry scan was conducted. The MR scanning sequence ended with a 5-min MPRAGE acquisition. […]
The functional imaging analyses for the working memory task was performed using SPM8 (Wellcome Department of Cognitive Neurology, London, UK). […] Data from each subject for each task were analyzed with a fixed box-car function convolved with a model hemodynamic response function. […]

Assay [2] relates to healthy male subjects. Nature of the assay: Resting state fMRI BOLD signal before ketamine infusion. The following applies: 3-30 mg. The assay is classed as in vivo, human. The method, then: as §1
The scanning protocol for the current study was very comprehensive and included multiple MR approaches. This publication reports the BOLD fMRI data for the working memory task, but also resting state fMRI. The magnetic scanning portion of the neuroimaging test battery was initiated 20 min before ketamine dosing. Imaging was performed using a 3 Tesla Siemens Trio scanner. The MR scanning protocol was initiated 20 min before ketamine dosing; prior to scanning, a structural magnetization prepared rapid gradient echo (MPRAGE) scan was collected. […]

Assay [3] relates to healthy male subjects. Nature of the assay: Ketamine-induced changes in fMRI BOLD signal during resting state. The assay is classed as in vivo, human. The method, then:
as §1
The scanning protocol for the current study was very comprehensive and included multiple MR approaches. This publication reports the BOLD fMRI data for the working memory task, but also resting state fMRI. The magnetic scanning portion of the neuroimaging test battery was initiated 20 min before ketamine dosing. Imaging was performed using a 3 Tesla Siemens Trio scanner. The MR scanning protocol was initiated 20 min before ketamine dosing; prior to scanning, a structural magnetization prepared rapid gradient echo (MPRAGE) scan was collected. As part of the scanning protocol, each subject received 20 min of scanning − 10 min arterial spin labeling (ASL) plus 10 min resting BOLD prior to ketamine infusion. After ketamine infusion, the resting state fMRI BOLD acquisition continued for an additional 10 min. Next, a Spatial Working Memory task-induced fMRI BOLD acquisition was performed for 15 min. Following these BOLD acquisitions, another 10 min ASL scan was acquired and a 10-min T1 relaxometry scan was conducted. The MR scanning sequence ended with a 5-min MPRAGE acquisition.
Fifty sequential gradient-echo echoplanar images (EPIs) sensitive to blood oxygenation level-dependent (BOLD) signal were collected in contiguous slices of 6-mm thickness, with 3000-ms repetition time, 40-ms echo time, 20 × 20-cm field of view, a 64 × 64 image matrix, 70° flip angle, and an in-plane resolution of 3 × 3 mm. A working memory challenge based on the expectancy A-X Continuous Performance Test (AX-CPT) paradigm was presented. The AX-CPT task was implemented in Eprime and presents 144 trials in four blocks of 36 trials. Before scanning, participants practiced the task (Barch et al. [2001]; MacDonald et al. [2003]).
We conducted a number of pre-processing steps to standardize examination of data after acquisition. These steps included (a) using the anatomical image (T1 weighted MPRAGE acquired for each subject at the beginning of the imaging session) to determine the parameters for spatial normalization to the EPI template image supplied with statistical parametric mapping (SPM) using a 12-parameter transformation; (b) registering functional images to correct for subject movement during the experimental paradigm; (c) normalizing functional images to transform images from analyzed subjects into the same standard space; (d) smoothing images (8-mm full width at half maximum [FWHM]) to minimize normalization artifacts and improve signal to noise ratio; (e) applying a high pass filter of 1200 s to the data following spatial smoothing to minimize the influence of very low frequency noise present in fMRI BOLD data without distorting the ketamine response profile. […]

For assay [4], the system named is rodent models of cognitive impairment. Set-up: method as in Shiraishi et al. [2016]. As to conditions: ref Shiraishi et al. [2016]; cited from earlier work.
A further assay relates to anesthetized rats. Set-up: method as in Tomimatsu et al. [2016]. As to conditions: ref Tomimatsu et al. [2016], cited from earlier work.

Where only a bound is given, the exact number is not on record here.

`COc1cn(-c2ccc(-n3cccn3)cc2F)nc(-c2ccnn2-c2ccccc2)c1=O` [TAK-063]: the “effect size in right substantia nigra, left thalamus and left ventrolateral prefrontal cortex” value in the assay on healthy male subjects [1] (10 mg, working memory task, small non-negative effects) was less than 0.15. The “effect in left amygdala” value in the assay with healthy male subjects [1] (30 mg, working memory task) is listed as “small non-negative effect”. For the same compound, the “effect on Cohen's effect size for fMRI BOLD signal during working memory task” value with healthy male subjects [1] (across all doses) is reported as “decreased the Cohen’s effect size for fMRI BOLD signal in many brain regions”. Further, in the assay with healthy male subjects [2], the “effects on fMRI BOLD signal during the resting state before ketamine infusion” value is listed as “region-specific effects”. Further, the “effect sizes at the 10-mg dose” value in the assay on healthy male subjects [3] (10 mg, ketamine-induced BOLD changes, resting state) is “generally smaller relative to the effects of other dose groups”. The “effect on ketamine-induced changes in resting state fMRI BOLD signals” value in the assay on healthy male subjects [3] (many key regions examined, 3-30 mg) is listed as “meaningful effect attenuating ketamine-induced changes”. Also, the “MK-801 and phencyclidine-induced effects on spatial working memory, attentional set-shifting, and executive function” value in assay [4] is recorded as “reversed”. Further, the “ketamine-induced increases in percent BOLD signal change in cortical regions” value with anesthetized rats (anesthetized rats, hippocampus, cingulate and retrosplenial cortex) was “reduced”. In the assay with anesthetized rats (rat), the “percent BOLD signal change during the resting state in caudate putamen and substantia nigra” value is reported as “increased”.
